{"source": "patent US8846012B2", "about": "“Melanin production inhibitor” (Pola Chemical Industries Inc., priority 2008, dated 2014)", "key": {"[1]": {"system": "Trichopyton mentagrophytes (ATCC18748)", "test": "Measurement of antimycotic activity (Alamar Blue growth inhibition of dermatophytes)", "format": "cell-based", "settings": "for MIC80: read-out: MIC80 Concentration", "experimental": "10.4 g of RPMI1640 (manufactured by SAFC Biosciences) were dissolved in 900 mL of distilled water, and 34.53 g of a 0.165 M MOPS buffer (manufactured by DOJINDO LABORATORIES) were added and dissolved by stirring.\nDermatophytes (Trichopyton mentagrophytes (ATCC18748)) were inoculated into a 1/10 Sabouraud Dextrose agar medium (manufactured by DIFCO) and cultured at 28° C. for 14 days, and then a conidial suspension was prepared using 0.1% Tween80-including physiological saline. The suspension was filtered through gauze, and the number of the conidia was counted using a hemocytometer and then adjusted to 2.5×10^5/mL with the RPMI1640 medium. The resultant suspension was used as an inoculum.\nCompound 5 and clotrimazole were diluted with the RPMI1640 medium to prepare 0.3125, 0.625, 1.25, 2.5, 5, 10, 20, and 200 μg/mL diluted solutions. The diluted solutions having different concentrations were dispensed into a 96-well flat-bottom microplate in an amount of 100 μL per well, and 80 μL of the inoculum and 20 μL of an Alamar Blue solution (manufactured by Nalgene) were further added thereto. Further, 80 μL of the inoculum and 20 μL of the Alamar Blue solution were added to 100 μL of the RPMI1640 medium in growth control wells, and 20 μL of the Alamar Blue solution was added to 180 μL of the RPMI1640 medium in negative control wells. The microplate was placed in a chamber in which the humidity was kept constant, and culture was started at 27° C., and the cells were observed every 24 hours. 120 hours from beginning of culture, i.e., when the growth control became obviously red (reduced form), absorbance measurement at 570 nm was performed using a microplate reader (SPECTRAMAX 250, manufactured by Molecular Device).\nThe test compounds were tested at the respective concentrations in triplicate. The growth inhibition rate (%) of each of the test compound-added groups was determined by the following equation based on a value calculated by subtracting an average absorbance value of the negative control from an average absorbance value of the growth control and the test compound-added wells. Further, […] (minimum inhibitory concentration; the minimum concentration at which the growth inhibition rate is 80% or more) was calculated from the growth inhibition rate of each test compound. Growth inhibition rate (%)=[1−(average absorbance value in test compound-added wells-average absorbance value of negative control)/(average absorbance value of growth control-average absorbance value of negative control)]×100\nCompound 1, Compounds 3 to 6, Compound 40, Compound 41, triphenylmethylamine, triphenylmethanol, triphenylmethane, aminodiphenylmethane, and clotrimazole were diluted with the RPMI1640 medium to prepare 0.3125, 0.625, 1.25, 2.5, 5, 10, 20, and 200 μg/mL diluted solutions. The diluted solutions having different concentrations were dispensed into a 96-well flat-bottom microplate in an amount of 100 μl, per well, and 80 μL of the inoculum and 20 μl, of an Alamar Blue solution (manufactured by Nalgene) were further added thereto. Further, 80 μl, of the inoculum and 20 μl, of the Alamar Blue solution were added to 100 μL of the RPMI1640 medium in growth control wells, and 20 μL of the Alamar Blue solution was added to 180 μL of the RPMI1640 medium in negative control wells. The microplate was placed in a chamber in which the humidity was kept constant, and then culture was started at 27° C., and the cells were observed every 24 hours. 120 hours from beginning of culture, i.e., when the growth control became obviously red (reduced form), absorbance measurement at 570 nm was performed using a microplate reader (SPECTRAMAX 250, manufactured by Molecular Device).\nThe test compounds were tested at the respective concentrations in triplicate. […]"}, "[2]": {"system": "ultraviolet ray-induced pigmentation", "test": "Ultraviolet ray-induced pigmentation inhibition test using pigmented guinea pigs", "format": "in vivo", "settings": "for ΔL* value: 1% (w/v) in ethanol, 30 μL once a day for 6 weeks, L* day 57 minus L* day 15, mean ± SD of eight animals; for inhibition of pigmentation induced by ultraviolet rays (in words): applied to the skin at a concentration of 1%", "text": "The hair of the dorsal skin of each of eight pigmented guinea pigs was removed and shaved using an electrical hair clipper and shaver, and each of the sites was covered with a black cloth having a total of four (two on the top and bottom and two on the right and left) irradiation windows with a size of 2×2 cm, and then irradiated with ultraviolet rays of 300 mJ/cm^2 using FL20S•E30 lamp as a light source. This operation was repeated on days 1, 3, 5, 8, 10, and 12 after the start of the test to induce pigmentation on the four test sites.\nCompound 2, Compound 3, and Compound 4 were dissolved in ethanol at a concentration of 1% (w/v) to prepare samples for application. Further, as a control, ethanol was used alone as a sample for application.\nOn day 15 of the test, application of the samples was started. The respective samples were applied to the predetermined test sites once a day in an amount of 30 μL, and the application was continued for 6 weeks (until day 56 of the test).\nOn the day of the start of application (day 15 of the test) and after the completion of application for 6 weeks (on day 57 of the test), the skin brightness (L* value) of each of the test sites was measured using a colorimeter (CR-200, Konica Minolta Holdings, Inc.), and a ΔL* value was calculated by subtracting an L* value on day 15 of the test from an L* value on day 57 of the test. […] As degree of the pigmentation becomes stronger, the L* value becomes smaller. Therefore, it can be evaluated that, as the ΔL* value becomes larger, pigmentation is more inhibited."}, "normal human melanocytes": {"system": "normal human melanocytes", "test": "Melanin production inhibition test using cultured normal human melanocytes (14C-thiouracil incorporation)", "format": "cell-based", "settings": "Homo sapiens, Melanocyte; for activity at 5 µM: addition amount 5.0 μM", "experimental": "The inhibitory effect on melanin production of the melanin production inhibitor of the present invention can be measured using thiouracil which is incorporated specifically into cells in a melanin synthesis process in the cells. For example, the amount of melanin production can be measured by measuring an amount of thiouracil incorporated into cells by measuring an amount of radiation with radiolabeled thiouracil.\nThe inhibitory effect on melanin production of Compound 1 was evaluated using 2-thiouracil (^14C-labeled 2-thiouracil was used in this test) which is incorporated specifically into melanin in an intracellular melanin synthesis process. Complete medium for culture of melanocytes (manufactured by Kurabo Industries Ltd.) was added to 15 wells in a 24-well plate in an amount of 2 mL per well, and normal human melanocytes (manufactured by Kurabo Industries Ltd.) were seeded into the wells at a concentration of 1.5×10^4 cells/cm^2. The cells were cultured in a 5% carbon dioxide atmosphere at 37° C. for 24 hours. Thereafter, the medium in all the wells was exchanged under the following conditions: fresh complete medium for culture of melanocytes (control) was used in three wells; each of complete medium for culture of melanocytes, which including Compound 1 at concentrations of 1.0 μM, 2.0 μM, and 4.0 μM, was used in a total of nine wells including three wells for each concentration; and complete medium for culture of melanocytes, each of which including arbutin (positive control) known as a melanin production inhibitor at a concentration of 0.5 mM (500 μM), was used in the other three wells. Further, 2-[2-^14C]thiouracil (^14C-labeled thiouracil) was added to each of these 15 wells at 0.25×10^−6 Ci (curie). Then, the cells were cultured for further 3 days under the same conditions as the above. After the completion of culture, the culture medium was removed from the wells, and the cells were washed with phosphate buffered physiological saline (PBS) and then separated from the bottoms of the wells with medium including trypsin and EDTA to prepare cell suspensions, followed by centrifugation to collect the cells. The number of the cells was counted using a hemocytometer. Thereafter, the amounts of ^14C-thiouracil in the cells collected from each well (0.25×10^−6 Ci) were measured using a liquid scintillation counter (ALOKA CO., LTD.). The percentages of an amount of radioactivity in the cells cultured in the medium including the test substances with respect to an amount of radioactivity in the cells collected from the well of the control were calculated as amounts of melanin (%). That is, as the amount of radioactivity incorporated into the cells is smaller, the amount of melanin is evaluated to be smaller, i.e., the melanin inhibition effect of the component added is evaluated to be larger.\nInhibitory effects on melanin production of Compounds 2 to 39 (however, the effects of Compound 9 and 15 were not measured) were examined in the same procedure as in Test Example 1.\nThese were examined in the same procedure as in Test Example 1.\nFurther, the results of melanin production inhibition by treatment with the respective test compounds, determined in the same procedure as in Test Example 1, are also shown in the table."}, "[3]": {"settings": "minimum concentration at which the growth inhibition rate is 80% or more"}}, "note": "Where two headings read alike, the source gives them in different places.", "data": [{"molecule": "NCCOC(c1ccccc1)(c1ccccc1)c1ccccc1", "note": "[Compound 4, 2-(triphenylmethyloxy)ethylamine]", "values": [{"measurement": "MIC80 Concentration", "setting": "[1]; [3]", "value": 100.0000, "unit": "mg/L"}, {"measurement": "MIC80", "setting": "[1]; [3]", "value": 100, "unit": "mg/L"}, {"measurement": "ΔL* value", "setting": "[2]", "value": "3.4 ± 0.8"}, {"measurement": "inhibition of pigmentation induced by ultraviolet rays (in words)", "setting": "[2]", "value": "obviously inhibited pigmentation induced by ultraviolet rays"}, {"measurement": "activity at 2 µM", "setting": "normal human melanocytes; Table 7, treatment concentration 2 μM, read-out: Amount of melanin", "value": "34.2 ± 3.58", "unit": "%"}, {"measurement": "activity at 2 µM", "setting": "normal human melanocytes; Table 2, addition amount 2.0 μM, control = 100%", "value": "33.8 ± 0.8", "unit": "%"}]}, {"molecule": "OCCOC(c1ccccc1)(c1ccccc1)c1ccccc1", "note": "[Compound 2, 2-(triphenylmethyloxy)ethanol]", "values": [{"measurement": "ΔL* value", "setting": "[2]", "value": "3.9 ± 0.94"}, {"measurement": "inhibition of pigmentation induced by ultraviolet rays (in words)", "setting": "[2]", "value": "obviously inhibited pigmentation induced by ultraviolet rays"}, {"measurement": "activity at 5 µM", "setting": "normal human melanocytes; Table 2, control = 100%", "value": "44 ± 3.2", "unit": "%"}]}, {"molecule": "OCCNC(c1ccccc1)(c1ccccc1)c1ccccc1", "note": "[Compound 3, 2-(triphenylmethylamino)ethanol]", "values": [{"measurement": "growth inhibitory effect on Trichopyton mentagrophytes (in words)", "setting": "[1]; added at a concentration of 100 μg/mL", "value": "no growth inhibitory effect"}, {"measurement": "MIC80", "setting": "[1]; [3]", "value": "> 100", "unit": "mg/L"}, {"measurement": "ΔL* value", "setting": "[2]", "value": "3.9 ± 0.52"}, {"measurement": "inhibition of pigmentation induced by ultraviolet rays (in words)", "setting": "[2]", "value": "obviously inhibited pigmentation induced by ultraviolet rays"}, {"measurement": "activity at 5 µM", "setting": "normal human melanocytes; Table 2, control = 100%", "value": "51.6 ± 4.2", "unit": "%"}, {"measurement": "activity at 10 µM", "setting": "normal human melanocytes; Table 7, treatment concentration 10 μM, read-out: Amount of melanin", "value": "22.3 ± 0.63", "unit": "%"}]}]}
